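Five compound concentrations were applied to cells in 96-well plates for 48 hours; endpoints were derived by simple linear interpolation of the resulting dose-response curve. GI50 = concentration required for 50% inhibition of growth. TGI: concentration producing complete growth inhibition.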
What was measured:
Experiment in all cases: growth of human tumour cells (NCI), 48 h
786-0 renal = system: 786-0 renal
A498 renal = system: A498 renal
A549 NSCLC = system: A549 NSCLC
ACHN renal = system: ACHN renal
BT-549 breast = system: BT-549 breast
CAKI-1 renal = system: CAKI-1 renal
CCRF-CEM leukemia = system: CCRF-CEM leukemia
COLO 205 colon = system: COLO 205 colon
DU-145 prostate = system: DU-145 prostate
EKVX NSCLC = system: EKVX NSCLC
HCC-2998 colon = system: HCC-2998 colon
HCT-116 colon = system: HCT-116 colon
HCT-15 colon = system: HCT-15 colon
HL-60(TB) leukemia = system: HL-60(TB) leukemia
HOP-62 NSCLC = system: HOP-62 NSCLC
HOP-92 NSCLC = system: HOP-92 NSCLC
HS 578T breast = system: HS 578T breast
HT29 colon = system: HT29 colon
IGROV1 ovarian = system: IGROV1 ovarian
K-562 leukemia = system: K-562 leukemia
KM12 colon = system: KM12 colon
LOX IMVI melanoma = system: LOX IMVI melanoma
M14 melanoma = system: M14 melanoma
MALME-3M melanoma = system: MALME-3M melanoma
MCF7 breast = system: MCF7 breast
MDA-MB-231 breast = system: MDA-MB-231 breast
MDA-MB-435 = system: MDA-MB-435
MOLT-4 leukemia = system: MOLT-4 leukemia
NCI-H226 lung = system: NCI-H226 lung
NCI-H23 lung = system: NCI-H23 lung
NCI-H460 lung = system: NCI-H460 lung
NCI-H522 lung = system: NCI-H522 lung
NCI/ADR-RES ovarian = system: NCI/ADR-RES ovarian
OVCAR-3 ovarian = system: OVCAR-3 ovarian
OVCAR-4 ovarian = system: OVCAR-4 ovarian
OVCAR-5 ovarian = system: OVCAR-5 ovarian
OVCAR-8 ovarian = system: OVCAR-8 ovarian
PC-3 prostate = system: PC-3 prostate
RPMI-8226 leukemia = system: RPMI-8226 leukemia
RXF 393 renal = system: RXF 393 renal
SF-268 CNS = system: SF-268 CNS
SF-295 CNS = system: SF-295 CNS
SF-539 CNS = system: SF-539 CNS
SK-MEL-2 melanoma = system: SK-MEL-2 melanoma
SK-MEL-28 melanoma = system: SK-MEL-28 melanoma
SK-MEL-5 melanoma = system: SK-MEL-5 melanoma
SK-OV-3 ovarian = system: SK-OV-3 ovarian
SN12C renal = system: SN12C renal
SNB-19 CNS = system: SNB-19 CNS
SNB-75 CNS = system: SNB-75 CNS
SR leukemia = system: SR leukemia
SW-620 colon = system: SW-620 colon
T-47D breast = system: T-47D breast
TK-10 renal = system: TK-10 renal
U251 CNS = system: U251 CNS
UACC-257 melanoma = system: UACC-257 melanoma
UACC-62 melanoma = system: UACC-62 melanoma
UO-31 renal = system: UO-31 renal

Q: With `CCOC(=O)/C(C#N)=C1\SS/C(=C(/C#N)C(=O)OCC)S1` as the molecule, how does the GI50 (786-0 renal) read?
A: 19.2 µM

Q: What about the TGI (786-0 renal) of the same molecule?
A: 34.1 µM

Q: And the GI50 (A498 renal)?
A: 63.9 µM

Q: What about the TGI (A498 renal) of the same molecule?
A: > 100 µM

Q: What about the GI50 (A549 NSCLC) of the same molecule?
A: 40 µM

Q: And the TGI (A549 NSCLC)?
A: > 100 µM

Q: What about the GI50 (ACHN renal) of the same molecule?
A: 14.8 µM

Q: What about the TGI (ACHN renal) of the same molecule?
A: 29.5 µM

Q: And the GI50 (BT-549 breast)?
A: 17.8 µM

Q: What about the TGI (BT-549 breast) of the same molecule?
A: 32.7 µM

Q: What about the GI50 (CAKI-1 renal) of the same molecule?
A: 4.38 µM

Q: What about the TGI (CAKI-1 renal) of the same molecule?
A: 18.6 µM

Q: What about the GI50 (CCRF-CEM leukemia) of the same molecule?
A: 4.62 µM

Q: And the TGI (CCRF-CEM leukemia)?
A: 67.7 µM

Q: And the GI50 (COLO 205 colon)?
A: 0.861 µM

Q: And the TGI (COLO 205 colon)?
A: 2.67 µM

Q: What about the GI50 (DU-145 prostate) of the same molecule?
A: 18.2 µM

Q: What about the TGI (DU-145 prostate) of the same molecule?
A: 33.6 µM

Q: What about the GI50 (EKVX NSCLC) of the same molecule?
A: 19.6 µM

Q: What about the TGI (EKVX NSCLC) of the same molecule?
A: 50.4 µM

Q: What about the GI50 (HCC-2998 colon) of the same molecule?
A: 20.1 µM

Q: And the TGI (HCC-2998 colon)?
A: 39.9 µM

Q: What about the GI50 (HCT-116 colon) of the same molecule?
A: 14.2 µM

Q: What about the TGI (HCT-116 colon) of the same molecule?
A: 33.5 µM

Q: What about the GI50 (HCT-15 colon) of the same molecule?
A: 18 µM

Q: And the TGI (HCT-15 colon)?
A: 61.4 µM

Q: What about the GI50 (HL-60(TB) leukemia) of the same molecule?
A: 22.6 µM

Q: What about the TGI (HL-60(TB) leukemia) of the same molecule?
A: 63 µM

Q: What about the GI50 (HOP-62 NSCLC) of the same molecule?
A: 26.1 µM

Q: And the TGI (HOP-62 NSCLC)?
A: 86.7 µM

Q: And the GI50 (HOP-92 NSCLC)?
A: 14.3 µM

Q: What about the TGI (HOP-92 NSCLC) of the same molecule?
A: 28.3 µM

Q: And the GI50 (HS 578T breast)?
A: 47.9 µM

Q: And the TGI (HS 578T breast)?
A: > 100 µM

Q: What about the GI50 (HT29 colon) of the same molecule?
A: 3.92 µM

Q: And the TGI (HT29 colon)?
A: 22.3 µM

Q: What about the GI50 (IGROV1 ovarian) of the same molecule?
A: 14.2 µM

Q: And the TGI (IGROV1 ovarian)?
A: 33 µM

Q: And the GI50 (K-562 leukemia)?
A: 7.99 µM

Q: And the TGI (K-562 leukemia)?
A: > 100 µM

Q: And the GI50 (KM12 colon)?
A: 20.1 µM

Q: What about the TGI (KM12 colon) of the same molecule?
A: 41.3 µM

Q: What about the GI50 (LOX IMVI melanoma) of the same molecule?
A: 13.9 µM

Q: And the TGI (LOX IMVI melanoma)?
A: 57.4 µM

Q: What about the GI50 (M14 melanoma) of the same molecule?
A: 17 µM

Q: What about the TGI (M14 melanoma) of the same molecule?
A: 35.9 µM

Q: And the GI50 (MALME-3M melanoma)?
A: 11.6 µM

Q: What about the TGI (MALME-3M melanoma) of the same molecule?
A: 27.4 µM

Q: What about the GI50 (MCF7 breast) of the same molecule?
A: 18.3 µM

Q: What about the TGI (MCF7 breast) of the same molecule?
A: 41.1 µM

Q: What about the GI50 (MDA-MB-231 breast) of the same molecule?
A: 14.9 µM

Q: What about the TGI (MDA-MB-231 breast) of the same molecule?
A: 29.6 µM

Q: What about the GI50 (MDA-MB-435) of the same molecule?
A: 17.1 µM

Q: And the TGI (MDA-MB-435)?
A: 33.1 µM

Q: And the GI50 (MOLT-4 leukemia)?
A: 10.8 µM

Q: And the TGI (MOLT-4 leukemia)?
A: 57.8 µM

Q: What about the GI50 (NCI-H226 lung) of the same molecule?
A: 19.6 µM

Q: And the TGI (NCI-H226 lung)?
A: 38.6 µM

Q: What about the GI50 (NCI-H23 lung) of the same molecule?
A: 23.5 µM

Q: And the TGI (NCI-H23 lung)?
A: 61.2 µM

Q: What about the GI50 (NCI-H460 lung) of the same molecule?
A: 32 µM

Q: And the TGI (NCI-H460 lung)?
A: > 100 µM

Q: What about the GI50 (NCI-H522 lung) of the same molecule?
A: 2.47 µM

Q: What about the TGI (NCI-H522 lung) of the same molecule?
A: 7.59 µM

Q: And the GI50 (NCI/ADR-RES ovarian)?
A: 25.8 µM

Q: What about the TGI (NCI/ADR-RES ovarian) of the same molecule?
A: 65.3 µM

Q: What about the GI50 (OVCAR-3 ovarian) of the same molecule?
A: 14.5 µM

Q: And the TGI (OVCAR-3 ovarian)?
A: 28.8 µM

Q: And the GI50 (OVCAR-4 ovarian)?
A: 15.1 µM

Q: And the TGI (OVCAR-4 ovarian)?
A: 29.8 µM

Q: What about the GI50 (OVCAR-5 ovarian) of the same molecule?
A: 22.4 µM

Q: What about the TGI (OVCAR-5 ovarian) of the same molecule?
A: 42.8 µM

Q: And the GI50 (OVCAR-8 ovarian)?
A: 20.3 µM

Q: And the TGI (OVCAR-8 ovarian)?
A: 41.1 µM

Q: And the GI50 (PC-3 prostate)?
A: 19.7 µM

Q: And the TGI (PC-3 prostate)?
A: 40.7 µM

Q: And the GI50 (RPMI-8226 leukemia)?
A: 19.9 µM

Q: What about the TGI (RPMI-8226 leukemia) of the same molecule?
A: 73.5 µM

Q: What about the GI50 (RXF 393 renal) of the same molecule?
A: 13.3 µM

Q: What about the TGI (RXF 393 renal) of the same molecule?
A: 26.4 µM

Q: And the GI50 (SF-268 CNS)?
A: 20.5 µM

Q: What about the TGI (SF-268 CNS) of the same molecule?
A: 41 µM

Q: And the GI50 (SF-295 CNS)?
A: > 100 µM

Q: What about the TGI (SF-295 CNS) of the same molecule?
A: > 100 µM

Q: What about the GI50 (SF-539 CNS) of the same molecule?
A: 22.2 µM

Q: What about the TGI (SF-539 CNS) of the same molecule?
A: 42.8 µM

Q: And the GI50 (SK-MEL-2 melanoma)?
A: 18.7 µM

Q: And the TGI (SK-MEL-2 melanoma)?
A: 40.2 µM

Q: What about the GI50 (SK-MEL-28 melanoma) of the same molecule?
A: 18.9 µM

Q: And the TGI (SK-MEL-28 melanoma)?
A: 34.1 µM

Q: What about the GI50 (SK-MEL-5 melanoma) of the same molecule?
A: 32 µM

Q: And the TGI (SK-MEL-5 melanoma)?
A: > 100 µM

Q: What about the GI50 (SK-OV-3 ovarian) of the same molecule?
A: > 100 µM

Q: And the TGI (SK-OV-3 ovarian)?
A: > 100 µM

Q: What about the GI50 (SN12C renal) of the same molecule?
A: 19.9 µM

Q: What about the TGI (SN12C renal) of the same molecule?
A: 43.3 µM

Q: And the GI50 (SNB-19 CNS)?
A: 35.8 µM

Q: And the TGI (SNB-19 CNS)?
A: > 100 µM

Q: What about the GI50 (SNB-75 CNS) of the same molecule?
A: 22.4 µM

Q: What about the TGI (SNB-75 CNS) of the same molecule?
A: 57.5 µM

Q: What about the GI50 (SR leukemia) of the same molecule?
A: 3.59 µM

Q: And the TGI (SR leukemia)?
A: > 100 µM

Q: What about the GI50 (SW-620 colon) of the same molecule?
A: 5.4 µM

Q: What about the TGI (SW-620 colon) of the same molecule?
A: 32.7 µM

Q: And the GI50 (T-47D breast)?
A: 17.9 µM

Q: And the TGI (T-47D breast)?
A: 48.2 µM

Q: And the GI50 (TK-10 renal)?
A: 6.81 µM

Q: What about the TGI (TK-10 renal) of the same molecule?
A: 20.3 µM

Q: And the GI50 (U251 CNS)?
A: 19 µM

Q: And the TGI (U251 CNS)?
A: 38 µM

Q: And the GI50 (UACC-257 melanoma)?
A: 18.3 µM

Q: And the TGI (UACC-257 melanoma)?
A: 34.8 µM

Q: What about the GI50 (UACC-62 melanoma) of the same molecule?
A: 15.8 µM

Q: What about the TGI (UACC-62 melanoma) of the same molecule?
A: 32.6 µM

Q: What about the GI50 (UO-31 renal) of the same molecule?
A: 13.2 µM

Q: And the TGI (UO-31 renal)?
A: 26.1 µM
